This note sets out measurements from patent US5436233A, “4-aminoquinazoline derivatives” (Ono Pharmaceutical Co., Ltd., priority 1993, dated 1995).

pIC50: −log10 of the molar value. Counter-ions that a name gives are not always drawn.

The target in one test is cGMP-PDE (Homo sapiens, UniProt O76074). Briefly: Inhibitory effect on cGMP-PDE. Format: biochemical. As to conditions: PDE IC isolated from human platelets; 3H-cGMP substrate 0.2 mM; pH 8.0; DMSO 2.5%.
Method: Typically, connective tissue and adventitia were removed and 1-2 units of platelets were suspended in 10 volumes of buffer A (20 mM Tris-HCl, pH 7.5, containing 2 mM magnesium acetate, 1 mM dithiothreitol, and 5 mM Na2EDTA) using a Brinkman polytron. The proteinase inhibitors leupeptin, pepstatin A, and phenylmethyl-sulfonyl fluoride (PMSF) were also included in this buffer (final concentration of 100 nM each). The homogenate was centrifuged at 100,000g for 60 minutes. The supernatant was then removed and filtered through four layers of cheesecloth. The supernatant was applied to a DWAE-Trisacryl M column. The column was washed with several bed volumes of buffer B (20 mM Tris-HCl, pH 7.5, containing 2 mM magnesium acetate, 1 mM dithiothreitol, and proteinase inhibitors) and eluted by two successive linear NaCl gradients (0.05-0.15M, 300 ml total; 0.15-0.40M, 200 ml total). Five milliliter fractions were collected and assayed for cyclic GMP PDE activity.
The concentration of substrate (^3 H-cGMP) was 0.2 mM. Compounds of the present invention were dissolved in dimethyl sulfoxide (DMSO) at a final concentration of 2.5%. This concentration of DMSO inhibited enzyme activity by approximately 10%.
In turn, `CN(C)c1ccc(CNc2nc(-c3cccnc3)nc3ccccc23)cc1` [3(o), 4-(4-(N,N-dimethylamino)phenylmethyl)amino-2-(3-pyridyl)quinazoline trihydrochloride] gave a pIC50 of 5.62. For the molecule `c1ccc(CNc2nc(Cn3ccnc3)nc3ccccc23)cc1` [6(b), 4-phenylmethylamino-2-((1-imidazolyl)methyl)quinazoline dihydrochloride], the pIC50 is 6.52. Molecule `CN(C)S(=O)(=O)c1ccc2nc(-n3ccnc3)nc(NCc3ccccc3)c2c1` [6(j), 6-dimethylaminosulfonyl-4-phenylmethylamino-2-(1-imidazolyl)quinazoline hydrochloride] showed a pIC50 of 6.87. On the same count and under the same terms, to `C#Cc1ccc2nc(-n3ccnc3)nc(NCc3ccccc3)c2c1` [18(b), 2-(1-imidazolyl)-4-phenylmethylamino-6-ethynylquinazoline dihydrochloride] belongs 9.28; to `C(=C\c1nc(NCc2ccccc2)c2ccccc2n1)/c1cccnc1` [Example 7, 4-phenylmethylamino-2-(2-(3-pyridyl)vinyl)quinazoline], 6.70; to `C#Cc1ccc2nc(-n3ccnc3)nc(NCCOC)c2c1` [Example 18, 6-ethynyl-4-(2-methoxyethyl)amino-2-(1-imidazolyl)quinazoline], 7.34.

In another test the target is T1, TXA2 synthetase (Rattus norvegicus, UniProt P49430).
T1 construct: whole blood was collected from abdominal aorta; from tissue; host or cells: freshly drawn heparinized whole blood of male Wistar rats
T1 sequence (P49430 1-533): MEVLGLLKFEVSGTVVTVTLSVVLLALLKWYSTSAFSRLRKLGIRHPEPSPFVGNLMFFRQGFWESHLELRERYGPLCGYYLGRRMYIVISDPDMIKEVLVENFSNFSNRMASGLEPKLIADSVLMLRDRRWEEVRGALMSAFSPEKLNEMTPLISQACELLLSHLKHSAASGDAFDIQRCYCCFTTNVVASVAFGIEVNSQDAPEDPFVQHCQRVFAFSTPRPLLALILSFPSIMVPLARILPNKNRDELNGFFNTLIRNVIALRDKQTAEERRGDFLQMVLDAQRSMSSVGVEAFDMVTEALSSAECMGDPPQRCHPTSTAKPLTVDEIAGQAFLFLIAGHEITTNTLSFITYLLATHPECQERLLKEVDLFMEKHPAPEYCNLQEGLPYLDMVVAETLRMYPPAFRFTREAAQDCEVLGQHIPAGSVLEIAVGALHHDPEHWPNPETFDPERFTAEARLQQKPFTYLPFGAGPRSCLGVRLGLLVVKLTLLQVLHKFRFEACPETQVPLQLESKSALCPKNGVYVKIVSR
Briefly: Inhibitory effect on TXA2 synthetase (TXB2 synthesis in A23187-stimulated heparinized whole blood). It counts as cell-based, Male Wistar rats. As to conditions: 37° C, Ca ionophore A23187 30 μM, TXB2 by EIA. How it is done: Male Wistar rats were starved overnight. Five hundreds microliter of heparinized (10 U/mL) whole blood was collected from abdominal aorta using polyethylene syringe (needle: 22 or 26G). The blood freshly drawn from animal was preincubated with 5 μL of test compound at 37° C. Five minutes later, 2.5 μL of 6 mM of Ca ionophore A23187 (final concentration of 30 μM) was added into tube, and incubation mixture was further incubated for 15 min. The reaction was terminated by centrifugation of tubes at 12,000 rpm for 2 min. TXB2 content in the supernatant was determined by EIA as follows.
One milliliter of 0.5M glycine-HCl buffer (pH 3.2) was added to 100 μL of sample. The samples were mixed well and centrifuged at 1,700 G for 10 min at 4° C. The extracted supernatant was applied to a SEP-PAK (registered Trade Mark) C18 cartridge (Waters Assoc.). After washing with 10 mL of distilled water followed by 10 mL each of 15% ethanol and petroleum ether, the sample was eluted with 3 mL of ethyl acetate. The ethyl acetate fraction was evaporated to dryness under gentle N2 stream and the residue was dissolved in EIA buffer (final volume of 1 mL) following the addition of 300 μL of 0.01M NaHCO3 -NaOH buffer (pH 10.0). EIA for TXB2 was carried out according to a legend attached to the kit (Chyman Chemical Co., Inc.). Overall recovery of TXB^2 in this extraction procedure was 90%. […]
`C#Cc1ccc2nc(-n3ccnc3)nc(NCCOC)c2c1` [Example 18, 6-ethynyl-4-(2-methoxyethyl)amino-2-(1-imidazolyl)quinazoline] gave a pIC50 of 5.62.
